Assay results reported in patent US7119073B2, “Peptides and their use as inhibitors of hepatitis C virus ns3 protease” (Istituto Di Ricerche Di Biologia Molecolare P. Angeletti SpA, priority 2001, dated 2006).

What follows are molecules tested against T1, NS3 protease domain complexed to a modified form of the NS4A peptide (Pep4AK) (Hepatitis C virus genotype 1b, UniProt P26663) (assay: HCV NS3 protease domain/NS4A cofactor peptide assay (Assay B)). Conditions: Table 1; NS3 protease domain/Pep4AK, 4AB peptide substrate; read-out: Assay B.
T1 construct: NS3 protease domain (residues 1027–1206 of the HCV polyprotein)
Assay type: biochemical

T1 sequence (P26663 1027-1206, other chains not shown): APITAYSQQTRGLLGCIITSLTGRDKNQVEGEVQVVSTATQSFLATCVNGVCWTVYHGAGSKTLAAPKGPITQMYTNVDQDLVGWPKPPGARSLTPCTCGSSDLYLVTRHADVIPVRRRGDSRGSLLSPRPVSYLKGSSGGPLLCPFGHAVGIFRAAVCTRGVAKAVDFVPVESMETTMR

| IC50 [µM] | SMILES |
| --- | --- |
| < 100 | COC(=O)CCc1ccc(CCNC(=O)C(CS)NC(=O)C(CC(C)C)NC(=O)C(CCC(=O)O)NC(=O)OCC(C)C)cc1 (stereo not drawn) [Compound 155] |
| < 10 | CC(C)COC(=O)NC(CCC(=O)O)C(=O)NC(CC(C)C)C(=O)NC(CS)C(=O)NCCc1ccc(S(N)(=O)=O)cc1 (stereo not drawn) [Compound 159] |
| < 10 | CC(C)COC(=O)NC(CCC(=O)O)C(=O)NC(CC(C)C)C(=O)NC(CS)C(=O)NCCc1ccc(S(=O)(=O)NC(=O)C(C)C)cc1 (stereo not drawn) [Compound 161] |
| < 10 | CC(C)COC(=O)NC(CCC(=O)O)C(=O)NC(CC(C)C)C(=O)NC(CS)C(=O)NCCc1ccc(S(=O)(=O)NC(=O)c2ccccc2)cc1 (stereo not drawn) [Compound 162] |
| < 10 | CCCCc1ccnc(C(=O)NS(=O)(=O)c2ccc(CCNC(=O)[C@H](CS)NC(=O)[C@H](CC(C)C)NC(=O)[C@H](CCC(=O)O)NC(=O)OCC(C)C)cc2)c1 [Compound 163] |
| < 100 | CC(C)COC(=O)NC(CCC(=O)O)C(=O)NC(CC(C)C)C(=O)NC(CS)C(=O)NCCc1ccc(Cl)c(Cl)c1 (stereo not drawn) [Compound 172] |
| < 100 | COc1ccc(OC)c(CCNC(=O)C(CS)NC(=O)C(CC(C)C)NC(=O)C(CCC(=O)O)NC(=O)OCC(C)C)c1 (stereo not drawn) [Compound 174] |
| < 100 | COc1cc(CCNC(=O)C(CS)NC(=O)C(CC(C)C)NC(=O)C(CCC(=O)O)NC(=O)OCC(C)C)ccc1O (stereo not drawn) [Compound 175] |
| < 100 | COc1ccc(CCNC(=O)C(CS)NC(=O)C(CC(C)C)NC(=O)C(CCC(=O)O)NC(=O)OCC(C)C)cc1Br (stereo not drawn) [Compound 176] |
| < 100 | CC(C)CC(NC(=O)C(NC(=O)OC1CCS(=O)(=O)CC1)C(C)C)C(=O)NC(CS)C(=O)NCCc1ccc(C(=O)O)cc1Cl (stereo not drawn) [Compound 182] |
| < 10 | CC(C)C[C@H](NC(=O)[C@@H](NC(=O)OCC1CCOC1)C(C)C)C(=O)N[C@@H](CS)C(=O)NCCc1ccc(C(=O)O)cc1Cl (stereo partly drawn) [Compound 183] |
| < 10 | CC(C)CCOC(=O)NC(C(=O)NC(CC(C)C)C(=O)NC(CS)C(=O)NCCc1ccc(C(=O)O)cc1Cl)C(C)C (stereo not drawn) [Compound 184] |
| < 100 | COC(=O)c1ccc(CCNC(=O)C(CS)NC(=O)C(CC(C)C)NC(=O)C(CCC(=O)O)NC(=O)OCC(C)C)c(F)c1 (stereo not drawn) [Compound 185] |
| < 1 | CC(C)COC(=O)NC(CCC(=O)O)C(=O)NC(CC(C)C)C(=O)NC(CS)C(=O)NCCc1ccc(C(=O)O)cc1F (stereo not drawn) [Compound 186] |
| < 10 | CC(C)COC(=O)N[C@@H](CCC(=O)O)C(=O)N[C@@H](CC(C)C)C(=O)N[C@@H](CS)C(=O)NCCc1cn(CC(=O)O)c2ccccc12 [Compound 188] |
| < 100 | CC(C)COC(=O)NC(CCC(=O)O)C(=O)NC(CC(C)C)C(=O)NC(CS)C(=O)NCCc1c[nH]c2ccccc12 (stereo not drawn) [Compound 189] |
| < 10 | CC(C)COC(=O)N[C@@H](CCC(=O)O)C(=O)N[C@@H](CC(C)C)C(=O)N[C@@H](CS)C(=O)NCCc1ccsc1 [Compound 190] |
| < 100 | CC(C)COC(=O)NC(CCC(=O)O)C(=O)NC(CC(C)C)C(=O)NC(CS)C(=O)NCCc1cccs1 (stereo not drawn) [Compound 191] |
| < 100 | CC(C)COC(=O)NC(CCC(=O)O)C(=O)NC(CC(C)C)C(=O)NC(CS)C(=O)NCCc1ccc2ccccc2c1 (stereo not drawn) [Compound 192] |
| < 100 | CC(C)COC(=O)NC(CCC(=O)O)C(=O)NC(CC(C)C)C(=O)NC(CS)C(=O)NCCc1cccnc1 (stereo not drawn) [Compound 193] |

| SMILES | IC50 [µM] |
| --- | --- |
| CCOC(=O)/C=C/c1ccc(CCNC(=O)[C@H](CS)NC(=O)[C@H](CC(C)C)NC(=O)[C@H](CCC(=O)O)NC(=O)OCC(C)C)cc1 [Compound 157] | < 10 |
| CC(C)COC(=O)N[C@@H](CCC(=O)O)C(=O)N[C@@H](CC(C)C)C(=O)N[C@@H](CS)C(=O)NCCc1ccc(/C=C/C(=O)O)cc1 [Compound 158] | < 10 |
| CC(=O)NS(=O)(=O)c1ccc(CCNC(=O)C(CS)NC(=O)C(CC(C)C)NC(=O)C(CCC(=O)O)NC(=O)OCC(C)C)cc1 (stereo not drawn) [Compound 160] | < 10 |
| CC(C)COC(=O)N[C@@H](CCC(=O)O)C(=O)N[C@@H](CC(C)C)C(=O)N[C@@H](CS)C(=O)NCCc1ccc(Cl)cc1Cl [Compound 165] | < 10 |
| CC(C)COC(=O)NC(C(=O)NC(CC(C)C)C(=O)NC(CC(F)F)C(=O)NCCc1ccc(C(=O)O)cc1Cl)C(C)C (stereo not drawn) [Compound 179] | < 10 |
| CC(C)C[C@H](NC(=O)[C@@H](NC(=O)OCC1CCCC1)C(C)C)C(=O)N[C@@H](CS)C(=O)NCCc1ccc(C(=O)O)cc1Cl [Compound 181] | < 10 |
| CC(C)COC(=O)NC(CCC(=O)O)C(=O)NC(CC(C)C)C(=O)NC(CC(F)F)C(=O)NCCc1c(F)cc(C(=O)O)cc1F (stereo not drawn) [Compound 187] | < 1 |

Same assay, conditions: Table 2; NS3 protease domain/Pep4AK; read-out: Assay B

| SMILES | IC50 [µM] |
| --- | --- |
| CC(C)C[C@H](NC(=O)[C@H](CCC(=O)O)NC(=O)c1ccc2c(c1)OCO2)C(=O)N[C@@H](CS)C(=O)NCCc1ccccc1Cl [Compound 203] | < 100 |
| COc1ccc(CCNC(=O)[C@H](CS)NC(=O)[C@H](CC(C)C)NC(=O)[C@H](CCC(=O)O)NC(=O)c2ccc3c(c2)OCO3)cc1 [Compound 204] | < 100 |
| COc1ccc(CCNC(=O)[C@H](CS)NC(=O)[C@H](CC(C)C)NC(=O)[C@H](CCC(=O)O)NC(=O)c2ccc(C#N)cc2)cc1 [Compound 207] | < 100 |
| COc1ccc(CCNC(=O)[C@H](CS)NC(=O)[C@H](CC(C)C)NC(=O)[C@H](CCC(=O)O)NC(=O)c2ccco2)cc1 [Compound 214] | < 100 |
| COc1ccc(CCNC(=O)[C@H](CS)NC(=O)[C@H](CC(C)C)NC(=O)[C@H](CCC(=O)O)NC(=O)Cc2ccccc2)cc1 [Compound 216] | < 100 |
| COc1ccc(CCNC(=O)[C@H](CS)NC(=O)[C@H](CC(C)C)NC(=O)[C@H](CCC(=O)O)NC(=O)C2C[C@H]2c2ccccc2)cc1 (stereo partly drawn) [Compound 220] | < 100 |
| COc1ccc(CCNC(=O)[C@H](CS)NC(=O)[C@H](CC(C)C)NC(=O)[C@H](CCC(=O)O)NC(=O)Cc2cccs2)cc1 [Compound 223] | < 100 |

Now from value to molecule:

| IC50 [µM] | SMILES |
| --- | --- |
| < 100 | CC(C)C[C@H](NC(=O)[C@H](CCC(=O)O)NC(=O)c1ccco1)C(=O)N[C@@H](CS)C(=O)NCCc1ccccc1Cl [Compound 201] |
| < 100 | COc1ccc(CCNC(=O)[C@H](CS)NC(=O)[C@H](CC(C)C)NC(=O)[C@H](CCC(=O)O)NC(=O)c2ccccc2)cc1 [Compound 202] |
| < 100 | COc1ccc(C(=O)N[C@@H](CCC(=O)O)C(=O)N[C@@H](CC(C)C)C(=O)N[C@@H](CS)C(=O)NCCc2ccccc2Cl)cc1OC [Compound 205] |
| < 100 | CC(C)C[C@H](NC(=O)[C@H](CCC(=O)O)NC(=O)c1cccc(Br)c1)C(=O)N[C@@H](CS)C(=O)NCCc1ccccc1Cl [Compound 206] |
| < 100 | CC(C)C[C@H](NC(=O)[C@H](CCC(=O)O)NC(=O)c1cc(O)ccc1N)C(=O)N[C@@H](CS)C(=O)NCCc1ccccc1Cl [Compound 208] |
| < 100 | CC(C)C[C@H](NC(=O)[C@H](CCC(=O)O)NC(=O)c1ccncc1N)C(=O)N[C@@H](CS)C(=O)NCCc1ccccc1Cl [Compound 209] |
| < 100 | Cc1nn(Cc2cccc(C(=O)N[C@@H](CCC(=O)O)C(=O)N[C@@H](CC(C)C)C(=O)N[C@@H](CS)C(=O)NCCc3ccccc3Cl)c2)c(C)c1Br [Compound 210] |
| < 100 | CC(C)C[C@H](NC(=O)[C@H](CCC(=O)O)NC(=O)c1ccccc1-c1ccccc1C(=O)O)C(=O)N[C@@H](CS)C(=O)NCCc1ccccc1Cl [Compound 211] |
| < 100 | CC(C)C[C@H](NC(=O)[C@H](CCC(=O)O)NC(=O)c1cc2ccccc2s1)C(=O)N[C@@H](CS)C(=O)NCCc1ccccc1Cl [Compound 212] |
| < 100 | COc1ccc(CCNC(=O)[C@H](CS)NC(=O)[C@H](CC(C)C)NC(=O)[C@H](CCC(=O)O)NC(=O)c2cc3ccccc3s2)cc1 [Compound 213] |
| < 100 | CC(C)C[C@H](NC(=O)[C@H](CCC(=O)O)NC(=O)Cc1ccccc1)C(=O)N[C@@H](CS)C(=O)NCCc1ccccc1Cl [Compound 215] |
| < 100 | CC(C)C[C@H](NC(=O)[C@H](CCC(=O)O)NC(=O)CCc1ccccc1)C(=O)N[C@@H](CS)C(=O)NCCc1ccc(Cl)cc1Cl [Compound 217] |
| < 100 | CC(C)C[C@H](NC(=O)[C@H](CCC(=O)O)NC(=O)/C=C/c1ccc([N+](=O)[O-])cc1)C(=O)N[C@@H](CS)C(=O)NCCc1ccccc1Cl [Compound 218] |
| < 100 | CC(C)C[C@H](NC(=O)[C@H](CCC(=O)O)NC(=O)C1C[C@H]1c1ccccc1)C(=O)N[C@@H](CS)C(=O)NCCc1ccccc1Cl (stereo partly drawn) [Compound 219] |
| < 10 | CC(C)C[C@H](NC(=O)[C@H](CCC(=O)O)NC(=O)[C@@H](O)c1ccccc1)C(=O)N[C@@H](CS)C(=O)NCCc1ccccc1Cl [Compound 221] |
| < 100 | CC(C)C[C@H](NC(=O)[C@H](CCC(=O)O)NC(=O)Cc1ccsc1)C(=O)N[C@@H](CS)C(=O)NCCc1ccccc1Cl [Compound 222] |
| < 100 | CC(C)C[C@H](NC(=O)[C@H](CCC(=O)O)NC(=O)C(=O)c1cccs1)C(=O)N[C@@H](CS)C(=O)NCCc1ccccc1Cl [Compound 224] |
| < 10 | CC(C)C[C@H](NC(=O)[C@H](CCC(=O)O)NC(=O)Cc1ccccc1CC(=O)O)C(=O)N[C@@H](CS)C(=O)NCCc1ccc(Cl)cc1Cl [Compound 225] |
| < 100 | CC(C)C[C@H](NC(=O)[C@H](CCC(=O)O)NC(=O)Cc1cccc(CC(=O)O)c1)C(=O)N[C@@H](CS)C(=O)NCCc1ccc(Cl)cc1Cl [Compound 226] |
| < 100 | CC(C)C[C@H](NC(=O)[C@H](CCC(=O)O)NC(=O)Cc1ccc(CC(=O)O)cc1)C(=O)N[C@@H](CS)C(=O)NCCc1ccc(Cl)cc1Cl [Compound 227] |
| < 100 | C=CCCC(=O)N[C@@H](CCC(=O)O)C(=O)N[C@@H](CC(C)C)C(=O)N[C@@H](CS)C(=O)NCCc1ccccc1Cl [Compound 228] |
| < 100 | CC(C)CC(O)C(=O)N[C@@H](CCC(=O)O)C(=O)N[C@@H](CC(C)C)C(=O)N[C@@H](CS)C(=O)NCCc1ccccc1Cl (stereo partly drawn) [Compound 229] |
| < 100 | CC(C)C[C@H](NC(=O)[C@H](CCC(=O)O)NC(=O)C1CCCCC1)C(=O)N[C@@H](CS)C(=O)NCCc1ccccc1Cl [Compound 230] |
